# Read-outs that look alike come from different tables or passages of the source.
# Tests used:
# [1] = dog, in vivo, sc
# [2] = tested on: 5-HT2A receptor; conditions: cited from earlier work
# [3] = tested on: 5-hydroxytryptamine-(5-HT)1A; conditions: cited from earlier work
# [4] = tested on: 5-HT2A; conditions: cited from earlier work
# [5] = tested on: 5-HT2C; conditions: cited from earlier work
# [6] = tested on: serotonin transporter (SERT); conditions: cited from earlier work
# [7] = tested on: trace amine-associated receptors (TAARs); conditions: cited from earlier work
# [8] = tested on: sigma-1 receptor; conditions: cited from earlier work
# [9] = in vivo; cited from earlier work
# [10] = in vivo; conditions: dog, sc, 0.5 mg/kg; for Vd/F: Vz/F (mean)
# [11] = cited from earlier work
# [12] = in vivo; parameters: species or system male Beagle dogs; conditions: dog
# Source text: A: Proof of Concept—Pharmacokinetics (PK) of DMT-d10 in Male Beagle Dogs Following Subcutaneous Administration in Saline or Sodium Hyaluronate
# The objective of this study was to determine if a 1% (w/v) sodium hyaluronate formulation could modify the SC release of DMT-d10 compared to 0.9% (w/v) saline formulation.
# Animals. Three, non-naïve, male Beagle dogs aged ca 2-5 years and weighing 10-15 kg at dosing were supplied by Charles River for use on this study and were bred for use in scientific procedures. The animal work in this study was conducted under the UK Home Office Project License No. PPL PP9376768, Pharmacokinetics of Pharmaceuticals. This was a cross-over design study to reduce the number of dogs in use and as well as decrease interindividual variability.
# Housing. Animals were uniquely identified by microchip and tattoo in this study. During pre-trial and on-study periods, the animals were group housed in caging appropriate to the species. The animals were housed singly for up to 4 h per day and during this time had access to their daily ration of diet.
# IPS 5007 diet was provided as a daily ration throughout the study. A 350 g ration of feed per dog was provided once daily, except during designated procedures. On the morning of dosing (pre-dose), the animals were deprived from their daily food allowance until 2 h post dose. Mains quality tap water was available ad libitum. Details of diet and water are maintained at the test facility.
# (§1) Prior to acceptance for use on study, animals were subject to an examination and the results found to be satisfactory. All animals were weighed prior to each dose administration and the bodyweights recorded. Animals were checked regularly throughout the duration of the study. Any clinical signs were closely monitored and recorded.
# Test Items. DMT-d10 fumarate was formulated as a solution in 0.9% (w/v) saline, pH 5.5-6 (control) or in 1% (w/v, nominal) sodium hyaluronate in water for injection (WFI) (Formulation 28) at a free base concentration of 0.4 mg/mL (nominal) for SC injection. Each test item was prepared on the morning of dose administration and stored at ambient temperature, protected from light, until dosing.
# Control (0.9% w/v saline): On the day prior to dosing, DMT-d10 fumarate was removed from storage (frozen, in a freezer set to maintain ≤−20° C., protected from light) and allowed to equilibrate to room temperature. Using a precision analytical balance, 9.7 mg of DMT-d10 fumarate was weighed into a 20 mL headspace vial which was pre-calibrated to a final volume of 15 mL with a magnetic stir bar inside. The weighed API was returned to storage. On the morning of dosing, the weighed API was removed from storage and allowed to equilibrate to room temperature. 13.55 mL of vehicle (0.9% w/v saline) was added to the vial (equivalent to 90% of final volume) and set to magnetically stir for ca 35 minutes. Using a calibrated pH meter, the solution pH was measured. […] The solution was made to final volume of 15 mL, using the pre-calibrated line, with 0.9% w/v saline. The final pH was recorded as 5.53. The solution was then filtered using a […] PVDF syringe filter in the laminar air flow cabinet (LAFC). The visual appearance of the solution was recorded as a clear, colorless, homogenous solution. […] The control solution was protected from light at all times.
# Formulation 28: On the morning of dosing, DMT-d10 fumarate was removed from storage (frozen, in a freezer set to maintain ≤−20° C., protected from light) and allowed to equilibrate to room temperature. Using a precision analytical balance, 11.02 mg of DMT-d10 fumarate was weighed into a 20 mL headspace vial containing a magnetic stir bar. 3.5 mL of WFI was added to the vial and set to stir, making a stock solution with a free base concentration of 2 mg/mL (nominal) DMT-d10. Once homogenous, 2 mL of the stock solution was dispensed into a vial containing 8 mL of 1.25% (w/v, nominal) sodium hyaluronate and vortex mixed until homogenous. […]
# [13] = parameters: species or system male Beagle dogs; conditions: dog, in vivo, sc, 1 mg/kg
# Procedure: D: Dose Concentration and Dose Volume—Pharmacokinetics of DMT-d10 in Male Beagle Dogs Following Subcutaneous Administration at 1 mg/kg Formulated in Hyaluronic Acid Concentrations at Higher Dosing Solution Concentrations and Lower Dosing Volume
# The objective of this study was to determine the effect of increasing the dosing solution concentration of DMT-d10 and decreasing the dose volume on the SC release of DMT-d10 into the systemic circulation. This study was conducted using the same CRO, housing, and materials as described above in part A. All conditions described in part A pertain to this study with the exceptions noted below.
# Test Items. […]
# […]. Once homogeneous, the density was measured to be 1.000 g/cm^3. […] The visual appearance was recorded as a clear/yellowish homogenous solution at this stage. The pH was measured using a calibrated pH meter and recorded to be 3.24. […] The density was measured to be 1.012 g/cm^3. […]
# […]. The density of the resultant 0.8% (w/v, nominal) sodium hyaluronate solution was recorded to be 1.002 g/cm^3. […] The final visual appearance of the formulation was recorded as a clear, colorless, homogenous solution.
# (§2) Subcutaneous injections. […] Appropriate volumes of dose were calculated per each animal based on real animal bodyweights and a target dose volume of 0.05 mL/kg or 0.25 mL/kg. […]
# [14] = parameters: species or system male Beagle dogs; conditions: dog, in vivo, sc
# Procedure: as §1
# Subcutaneous injections. The target dose was 0.1 mg/kg, free base at a dose concentration of 0.4 mg/mL. Appropriate volumes of dose were calculated per each animal based on real animal bodyweights and a target dose volume of 0.25 mL/kg. The volumes were pulled into plastic Troge 2.5 mL syringes. Animals were identified by microchip and tattoo. […]
# Subcutaneous injections. […] Appropriate volumes of dose were calculated per each animal based on real animal bodyweights and a target dose volume of 0.25 mL/kg. […]
# as §2
# Subcutaneous injections. DMT+DMT-d10 were co-dosed (via Formulation 35) at 0.5 mg/kg/analyte, total dose of 1.0 mg/kg (free base), each at a dose concentration of 10 mg/mL (nominal), total dose concentration of 20 mg/mL (nominal) and a dose volume of 0.05 mL/kg calculated per each animal based on real animal bodyweights. […]
compound,measurement,setting,value
"CN(C)CCc1c[nH]c2ccccc12 [DMT, 2-(1H-indol-3-yl)-N,N-dimethylethan-1-amine]",plasma concentrations quantifiable to,[1],≤ 2 h
same,agonism at the 5-HT2A receptor,[2],potent agonist
same,binding to 5-HT1A,[3],binds with affinity
same,binding to 5-HT2A,[4],binds with affinity
same,binding to 5-HT2C,[5],binds with affinity
same,binding to SERT,[6],binds with affinity
same,binding to TAARs,[7],binds to other receptors
same,binding to sigma-1 receptor,[8],binds to other receptors
same,therapeutically relevant psychedelic dose,[9],≥ 70 mg
same,AUC(0-inf),[10],48.7 ng·h/mL
same,CL/F,[10],173 mL/min/kg
same,Cmax,[10],58.1 ng/mL
same,MRT inf,[10],52 min
same,Tmax,[10],30 min
same,half-life,[10],32 min
same,Vd/F,[10],7.59 L/kg
same,oral activity,"[11]; in vivo, po",not orally active
"[2H]C([2H])([2H])N(C([2H])([2H])[2H])C([2H])([2H])C([2H])([2H])c1c[nH]c2ccccc12 [DMT-d10, 2-(1H-indol-3-yl)-N,N-bis(methyl-d3)ethan-1-amine-1,1,2,2-d4]",dose proportionality of Cmax and AUCinf,[12],increased in a dose proportional manner
same,plasma DMT-d10 concentrations quantifiable up to,[12],up to 4 hours
same,MRT inf,[12]; sc,~90 min
same,Tmax,[12]; sc,30 to 45 min
same,half-life,[12]; sc,~54 min
same,plasma DMT-d10 concentrations quantifiable up to,[12]; sc,up to 4 hours
same,plasma DMT-d10 concentrations quantifiable up to,[13],up to 4 hours
same,adverse reactions to the administration,[14],No adverse reactions
same,clinical signs post-dose,[14],"Mild, transient clinical signs"
same,decrease of apparent clearance (Cl/F) by deuteration,[1],2.2 ×
same,decrease of apparent volume of distribution (Vz/F) by deuteration,[1],1.6 ×
same,increase of AUCinf by deuteration,[1],2.2 ×
same,increase of Cmax by deuteration,[1],1.3 ×
same,increase of MRTinf by deuteration,[1],1.4 ×
same,increase of t1/2 by deuteration,[1],1.4 ×
same,plasma concentrations quantifiable to,[1],≤ 4 h
same,Vz/F (mean),[1]; 0.5 mg/kg,4.72 L/kg
same,AUC(0-inf),[10],109 ng·h/mL
same,CL/F,[10],77.5 mL/min/kg
same,Cmax,[10],75.6 ng/mL
same,MRT inf,[10],73.8 min
same,Tmax,[10],30 min
same,half-life,[10],43.3 min
same,Vd/F,[10],4.73 L/kg
"COc1ccc2[nH]cc(CCN(C)C)c2c1 [Formulation 5-MeO-DMT, 5-methoxy-N,N-dimethyltryptamine]",oral bioavailability,[11]; oral,lacks oral bioavailability
